# Values of other authors as cited in US10695318B2, “Methods and compositions for improving cognitive function” (MARS, Incorporated, priority 2006, dated 2020).
# Test system: global CBF
# Details: inhalation of 5% C02 as vasodilative stimulus
structure (smiles),measurement,value
O=C=O [C02],global CBF increases,approximately 87%
